In patent US5055480A, “Topically active ocular gem-diacylthiadiazole sulfonamide carbonic anhydrase inhibitors” (Research Corporation Technologies, Inc., priority 1990, dated 1991):

Assays:
[1] = biological target: purified carbonic anhydrase (Homo sapiens, UniProt P00918); assay: Enzymatic carbonic anhydrase inhibition assay (modification of Maren's micromethod); format: biochemical; details: relative to acetazolamide control = 100%
Procedure: CAI efficacy and potency are assessed using an enzymatic method. […] Essentially, a reaction volume of 0.8 mL containing a carbonate/bicarbonate buffer, phenol red, purified carbonic anhydrase, and inhibitor is maintained at 0° and saturated with CO2 by constant bubbling. The time required for acidification to a color change endpoint is monitored as the dependent variable.

[2] = topical CAI, lowering of IOP; cited from earlier work
[3] = oral administration; cited from earlier work

Compound | Relative CA inhibition Potency [1] [%] | also measured
NS(=O)(=O)c1nnc(NC(CCC(=O)O)C(=O)O)s1 (stereo not drawn) [Example 3] | 22 | 
NS(=O)(=O)c1nnc(NC(CCCC(=O)O)C(=O)O)s1 (stereo not drawn) [Example 4] | 20 | 
NS(=O)(=O)c1nnc(NC(CC(=O)O)C(=O)O)s1 (stereo not drawn) [Example 2] | 48 | 
Nc1ccc2nc(S(N)(=O)=O)sc2c1 [aminozolamide] |  | efficacy in clinical trial [2]: partially effective
CC(=O)Nc1nnc(S(N)(=O)=O)s1 [acetazolamide, 2-acetylamino-1,3,4-thiadiazole-5-sulfonamide] |  | effect on IOP [3]: decrease IOP
NS(=O)(=O)c1nnc(NC(CCC(=O)O)CC(=O)O)s1 (stereo not drawn) [Example 5] | 60 | 
